The source of these data is patent publication US10865191B2, “Heterocyclic compounds useful as modulators of TNF alpha” (BRISTOL-MYERS SQUIBB COMPANY, priority 2015, dated 2020).

Chain of TNFα (P01375 77-233 limits assumed): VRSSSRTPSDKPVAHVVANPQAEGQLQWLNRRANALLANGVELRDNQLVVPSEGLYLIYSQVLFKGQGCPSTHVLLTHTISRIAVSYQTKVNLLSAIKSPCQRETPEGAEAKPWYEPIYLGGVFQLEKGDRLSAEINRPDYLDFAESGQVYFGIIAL

One test concerns the target TNFα (Homo sapiens, UniProt P01375). Briefly: TNF induced HEK-Blue assay (NF-kB-driven secreted alkaline phosphatase reporter). Type of test: cell-based. The settings on record: TNF induced HEK-Blue assay IC50 value, TNFα 0.5 ng/mL, HEK-Blue-CD40L cells, 18 h. The procedure, abridged: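 HEK-Blue-CD40L cells (NF-kB-driven SEAP reporter), 20,000/well, added after 30 min pre-incubation of compound (0.004–25 μM final) with TNFα 0.5 ng/mL final at 37 °C; 18 h incubation. SEAP read with QUANTI-Blue at 620 nm; IC50 from 4-parameter logistic fit, normalized to unstimulated and stimulated DMSO controls.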
For the compound `CC(Nc1c(Cl)cnc2ccc(-c3cnc(C(C)(C)O)nc3)c(Cl)c12)c1ccccc1F` (racemic) [Example 296, 2-(5-(3,5-dichloro-4-((1-(2-fluorophenyl)ethyl)amino)quinolin-6-yl)pyrimidin-2-yl)propan-2-ol], the IC50 was below 1 µM.

Compound `C[C@@H](Nc1c(Cl)cnc2ccc(-c3cnc(C(C)(C)O)nc3)cc12)c1cc(N)ccc1F` [Example 374, (R)-2-(5-(4-((1-(5-amino-2-fluorophenyl)ethyl)amino)-3-chloroquinolin-6-yl)pyrimidin-2-yl)propan-2-ol] showed an IC50 below 1 µM.

Still in this test, the particulars now being: TNFα 0.5 ng/mL, HEK-Blue-CD40L cells, 18 h; read-out: TNF induced HEK-Blue assay IC50 value.
With `Cc1nc2ccc(-c3cnc(C(C)(C)O)nc3)cc2c(N[C@H](C)c2cccc(OCCO)c2)c1Cl` [Example 437, (R)-2-(5-(3-chloro-4-((1-(3-(2-hydroxyethoxy)phenyl)ethyl)amino)-2-methylquinolin-6-yl)pyrimidin-2-yl)propan-2-ol], the IC50 is below 1 µM. As to `CC(Nc1c(Cl)cnc2cc(F)c(-c3cnc(C(C)(C)O)cn3)cc12)c1ccccc1F` (racemic) [Example 294, 2-(5-(3-chloro-7-fluoro-4-((1-(2-fluorophenyl)ethyl)amino)quinolin-6-yl)pyrazin-2-yl)propan-2-ol], the 50% inhibitory concentration (IC50) was below 1 µM.

With `C[C@@H](Nc1c(Cl)cnc2ccccc12)c1cc(-c2cc3ccccc3[nH]2)ccc1F` [Example 528, (R)-3-chloro-N-(1-(2-fluoro-5-(1H-indol-2-yl)phenyl)ethyl)quinolin-4-amine], the 50% inhibitory concentration (IC50) was 1 to 10 µM. Still for that read-out and setting: with `CC(Cc1ccc(OC(F)(F)F)cc1)Nc1c(Cl)cnc2ccc(-c3cnc(C(C)(C)O)nc3)cc12` (racemic) [Example 137, 2-(5-(3-chloro-4-((1-(4-(trifluoromethoxy)phenyl)propan-2-yl)amino)quinolin-6-yl)pyrimidin-2-yl)propan-2-ol] the figure was 1 to 10 µM; with `Fc1ccc(Br)cc1CNc1c(Cl)cnc2ccccc12` [Example 516, N-(5-bromo-2-fluorobenzyl)-3-chloroquinolin-4-amine], 10 to 25 µM. The same measure, in the same setting: to `C[C@@H](Nc1c(Cl)cnc2ccc(-c3cnc(C(C)(C)O)nc3)cc12)c1cc(C(O)CO)ccc1F` (single isomer, unassigned) [Example 401] belongs below 1 µM. Take `C[C@@H](Nc1c(Cl)cnc2ccc(-c3cnc(C(C)(C)O)nc3)cc12)c1cc(-n2cccn2)ccc1F` [Example 366, (R)-2-(5-(3-chloro-4-((1-(2-fluoro-5-(1H-pyrazol-1-yl)phenyl)ethyl)amino)quinolin-6-yl)pyrimidin-2-yl)propan-2-ol]: the IC50 was below 1 µM. As for `CC(Nc1c(Cl)cnc2ccc(-c3ccc(C(C)(C)O)cc3)cc12)c1cncs1` (racemic) [Example 211, 2-(4-(3-chloro-4-((1-(thiazol-5-yl)ethyl)amino)quinolin-6-yl)phenyl)propan-2-ol], the IC50 was below 1 µM.

`Cc1nc2ccc(-c3cnc(C(C)(C)O)nc3)cc2c(N[C@H](C)c2cc(OCCCO)ccc2F)c1Cl` [Example 444, (R)-3-(3-(1-((3-chloro-6-(2-(2-hydroxypropan-2-yl)pyrimidin-5-yl)-2-methylquinolin-4-yl)amino)ethyl)-4-fluorophenoxy)propan-1-ol]: the IC50 was below 1 µM. With `CC(Nc1c(Cl)cnc2ccc(-c3ccc(C(C)(C)O)cc3)cc12)c1cncn1C` (racemic) [Example 210, 2-(4-(3-chloro-4-((1-(1-methyl-1H-imidazol-5-yl)ethyl)amino)quinolin-6-yl)phenyl)propan-2-ol], the 50% inhibitory concentration (IC50) was below 1 µM. For `CC(CC1CCCC1)Nc1c(Cl)cnc2ccc(-c3cnc(C(C)(C)O)nc3)cc12` (racemic) [Example 140, 2-(5-(3-chloro-4-((1-cyclopentylpropan-2-yl)amino)quinolin-6-yl)pyrimidin-2-yl)propan-2-ol], the 50% inhibitory concentration (IC50) was below 1 µM. On the same count and under the same terms, with `Cc1nc2ccc(-c3cnc(C(C)(C)O)nc3)cc2c(NC(C)c2ccccc2F)c1Cl` (racemic) [Example 218, 2-(5-(3-chloro-4-((1-(2-fluorophenyl)ethyl)amino)-2-methylquinolin-6-yl)pyrimidin-2-yl)propan-2-ol] the figure was below 1 µM; with `C[C@@H](Nc1ccnc2ccc(Br)cc12)c1cc(-c2cncnc2)ccc1F` [Example 546, (R)-6-bromo-N-(1-(2-fluoro-5-(pyrimidin-5-yl)phenyl)ethyl)quinolin-4-amine], 10 to 25 µM. As to `Cc1ncc(-c2ccc(F)c([C@@H](C)Nc3c(Cl)cnc4ccccc34)c2)cn1` [Example 535, (R)-3-chloro-N-(1-(2-fluoro-5-(2-methylpyrimidin-5-yl)phenyl)ethyl)quinolin-4-amine], the IC50 is below 1 µM. The same measure, in the same setting: to `COC(=O)CCS(=O)(=O)c1ccc(F)c([C@@H](C)Nc2c(Cl)cnc3ccc(-c4cnc(C(C)(C)O)nc4)cc23)c1` [Example 427, Methyl (R)-3-((3-(1-((3-chloro-6-(2-(2-hydroxypropan-2-yl)pyrimidin-5-yl)quinolin-4-yl)amino)ethyl)-4-fluorophenyl)sulfonyl)propanoate] belongs 1 to 10 µM; to `CCNCc1ccc(-c2ccc3ncc(Cl)c(N[C@H](C)c4ccccc4F)c3c2)cc1` [Example 29, (R)-3-chloro-6-(4-((ethylamino)methyl)phenyl)-N-(1-(2-fluorophenyl)ethyl)quinolin-4-amine], 1 to 10 µM; to `C[C@@H](Nc1c(Cl)cnc2ccc(-c3ccc(CNC(N)=O)cc3)cc12)c1ccccc1F` [Example 569, (R)-1-(4-(3-chloro-4-((1-(2-fluorophenyl)ethyl)amino)quinolin-6-yl)benzyl)urea], below 1 µM. Same read-out and setting: with `Cc1nc2cc(F)c(-c3cnc(N4CCNC(=O)C4)nc3)cc2c(N[C@H](C)c2cc(C(N)=O)ccc2F)c1Cl` [Example 448, (R)-3-(1-((3-chloro-7-fluoro-2-methyl-6-(2-(3-oxopiperazin-1-yl)pyrimidin-5-yl)quinolin-4-yl)amino)ethyl)-4-fluorobenzamide] the figure was below 1 µM; with `Cc1nc2cc(F)c(-c3cnc(C(C)(C)O)nc3)nc2c(N[C@H](C)c2cccc(C#N)c2)c1Cl` [Example 589, (R)-3-(1-((3-chloro-7-fluoro-6-(2-(2-hydroxypropan-2-yl)pyrimidin-5-yl)-2-methyl-1,5-naphthyridin-4-yl)amino)ethyl)benzonitrile], below 1 µM. Same read-out and setting: to `Cc1nc2ccc(-c3ccc(C(C)(C)O)cc3)cc2c(N[C@H](C)c2ccccc2F)c1Cl` [Example 500, (R)-2-(4-(3-chloro-4-((1-(2-fluorophenyl)ethyl)amino)-2-methylquinolin-6-yl)phenyl)propan-2-ol] belongs below 1 µM.

For the compound `C[C@H](Nc1c(Cl)cnc2ccc(-c3cnc(C(C)(C)O)nc3)cc12)[C@H]1CCCN(C(=O)c2cccnc2)C1` [Example 566, ((S)-3-((S)-1-((3-chloro-6-(2-(2-hydroxypropan-2-yl)pyrimidin-5-yl)quinolin-4-yl)amino)ethyl)piperidin-1-yl)(pyridin-3-yl)methanone], the 50% inhibitory concentration (IC50) was 1 to 10 µM.

Consider `CC(C)(O)c1ncc(-c2ccc3ncc(Cl)c(NC(CF)c4ccccc4F)c3c2)cn1` (racemic) [Example 10, 2-(5-(3-chloro-4-((2-fluoro-1-(2-fluorophenyl)ethyl)amino)quinolin-6-yl)pyrimidin-2-yl)propan-2-ol], for which the concentration for half-maximal inhibition (IC50) was below 1 µM.
